Measurements: patent publication US20060100431A1, “Biologically active compounds” (Amura Therapeutics Limited, priority 2002, published 2006)

Target: Wild-type cruzipain (Trypanosoma cruzi, UniProt P25779)
Assay: Trypanosoma cruzi cruzipain peptidase activity assay (Ki)
Format: biochemical
Details: read-out: Ki, inhibitors of cruzain and cruzipains
Method: (§1) Unless otherwise stated, all general chemicals and biochemicals were purchased from either the Sigma Chemical Company, Poole, Dorset, U.K or from Fisher Scientific UK, Loughborough, Leicestershire, U.K. Absorbance assays were carried out in flat-bottomed 96-well plates (Spectra; Greiner Bio-One Ltd., Stonehouse, Gloucestershire, U.K.) using a SpectraMax PLUS384 plate reader (Molecular Devices, Crawley, U.K.). Fluorescence high throughput assays were carried out in either 384-well microtitre plates (Corning Costar 3705 plates, Fisher Scientific) or 96-well ‘U’ bottomed Microfluor W1 microtitre plates (Thermo Labsystems, Ashford, Middlesex, U.K.). Fluorescence assays were monitored using a SpectraMax Gemini fluorescence plate reader (Molecular Devices). For substrates employing either a 7-amino-4-methylcoumarin (AMC) or a 7-amino-4-trifluoromethylcoumarin (AFC) fluorophore, assays were monitored at an excitation wavelength of 365 nm and an emission wavelength of 450 nm and the fluorescence plate reader calibrated with AMC. For substrates employing a 3-amino-benzoyl (Abz) fluorophore, assays were monitored at an excitation wavelength of 310 nm and an emission wavelength of 445 nm; the fluorescence plate reader calibrated with 3-amino-benzamide (Fluka). Unless otherwise indicated, all the peptidase substrates were purchased from Bachem UK, St Helens, Merseyside, UK. Substrates utilizing fluorescence resonance energy transfer methodology (i.e. FRET-based substrates) were synthesized at Incenta Limited using published methods (Atherton & Sheppard, Solid Phase Peptide Synthesis, IRL Press, Oxford, U.K, 1989) and employed Abz (2-aminobenzoyl) as the fluorescence donor and 3-nitro-tyrosine [Tyr(NO2)] as the fluorescence quencher (Meldal, M. and Breddam, K., Anal. Biochem, 195, 141-147, 1991). Hydroxyethylpiperazine ethanesulfonate (HEPES), tris-hydroxylmethyl aminomethane (tris) base, bis-tris-propane and all the biological detergents (e.g. CHAPS, zwittergents, etc.) were purchased from CN Biosciences UK, Beeston, Nottinghamshire, U.K. Glycerol was purchased from Amersham Pharmacia Biotech, Little Chalfont, Buckinghamshire, U.K. Stock solutions of substrate or inhibitor were made up to 10 mM in 100% dimethylsulfoxide (DMSO) (Rathburns, Glasgow, U.K.) and diluted as appropriately required. In all cases the DMSO concentration in the assays was maintained at less than 1% (vol./vol.).
(§2) Assay protocols were based on literature precedent (Table 4; Barrett, A. J., Rawlings, N. D. and Woessner, J. F., 1998, Handbook of Proteolytic Enzymes, Academic Press, London and references therein) and modified as required to suit local assay protocols. Enzyme was added as required to initiate the reaction and the activity, as judged by the change in fluorescence upon conversion of substrate to product, was monitored over time. All assays were carried out at 25±1° C.
Wild-type cruzipain, derived from Trypanosoma cruzi Dm28 epimastigotes, was obtained from Dr. Julio Scharfstein (Instituto de Biofisica Carlos Chagas Filho, Universidade Federal do Rio de Janeiro, Rio de Janeiro, Brazil). Activity assays were carried out in 100 mM sodium phosphate, pH 6.75 containing 1 mM EDTA and 10 mM L-cysteine using 2.5 nM enzyme. […] The rate of conversion of substrate to product was derived from the slope of the increase in fluorescence monitored continuously over time.
(§3) The apparent inhibition constant (Ki) for each compound was determined on the basis that inhibition was reversible and occurred by a pure-competitive mechanism. The Ki values were calculated, from the dependence of enzyme activity as a function of inhibitor concentration, by direct regression analysis (Prism v 3.02) using Equation 2 (Cornish-Bowden, A., 1995.). [formula]

Chain of Wild-type cruzipain (P25779 whole entry): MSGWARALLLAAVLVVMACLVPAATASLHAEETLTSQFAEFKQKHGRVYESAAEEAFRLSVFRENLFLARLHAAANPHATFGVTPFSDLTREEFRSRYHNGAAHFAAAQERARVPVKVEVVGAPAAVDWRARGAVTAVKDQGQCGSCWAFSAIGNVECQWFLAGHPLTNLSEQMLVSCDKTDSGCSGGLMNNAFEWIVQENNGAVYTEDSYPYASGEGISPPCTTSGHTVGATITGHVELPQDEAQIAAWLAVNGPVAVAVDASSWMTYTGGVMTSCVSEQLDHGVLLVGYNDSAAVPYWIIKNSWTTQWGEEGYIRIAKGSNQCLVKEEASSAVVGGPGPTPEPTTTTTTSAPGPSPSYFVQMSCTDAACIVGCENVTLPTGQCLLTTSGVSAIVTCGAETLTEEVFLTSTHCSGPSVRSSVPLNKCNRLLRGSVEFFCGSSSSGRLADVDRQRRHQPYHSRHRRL

Compound	Ki [µM]
CC(C)(C)c1ccc(C(=O)N[C@@H](Cc2cccs2)C(=O)N2CC[C@@H]3[C@H]2C(=O)CN3C(=O)c2ccccc2)cc1 [Example 22, (3aR,6aS)-N-[(1S)-2-(4-Benzoyl-6-oxo-hexahydro-pyrrolo[3,2-b]pyrrol-1-yl)-2-oxo-1-thiophen-2-ylmethyl-ethyl]-4-tert-butyl-benzamide]	< 5
CCC[C@H](NC(=O)c1ccc(N(C)C)cc1)C(=O)N1CC[C@@H]2[C@H]1C(=O)CN2C(=O)c1ccccc1 [Example 196, (3aR,6aS)-N-[(1S)-1-(4-Benzoyl-6-oxo-hexahydro-pyrrolo[3,2-b]pyrrole-1-carbonyl)-butyl]-4-dimethylamino-benzamide]	< 5
CC(C)C[C@H](NC(=O)c1ccc(C(C)(C)C)cc1)C(=O)N1CC[C@@H]2[C@H]1C(=O)CN2C(=O)c1ccccn1 [Example 4, (3aR,6aS)-4-tert-Butyl-N-{(1S)-3-methyl-1-[6-oxo-4-(pyridine-2-carbonyl)-hexahydro-pyrrolo[3,2-b]pyrrole-1-carbonyl]-butyl}-benzamide]	< 5
CCC[C@H](N)C(=O)N1CC(=O)[C@@H]2[C@H]1CCN2C(=O)[C@H](CC(C)C)NC(=O)c1ccc(N(C)C)cc1 [Example 210, (3aR,6aS)-N-{(1S)-1-[4-((2S)-2-Amino-pentanoyl)-6-oxo-hexahydro-pyrrolo[3,2-b]pyrrole-1-carbonyl]-3-methyl-butyl}-4-dimethylamino-benzamide]	< 5
CC(=O)N[C@@H](C)C(=O)N1CC(=O)[C@@H]2[C@H]1CCN2C(=O)[C@H](CC(C)C)NC(=O)c1ccc(N(C)C)cc1 [Example 197, (3aR,6aS)-N-{(1S)-1-[4-((2S)-2-Acetylamino-propionyl)-6-oxo-hexahydro-pyrrolo[3,2-b]pyrrole-1-carbonyl]-3-methyl-butyl}-4-dimethylamino-benzamide]	< 5

More lines, now with the values ahead:

Ki [µM]	Compound
< 5	CC(C)C[C@H](NC(=O)c1ccc(N(C)C)cc1)C(=O)N1CC[C@@H]2[C@H]1C(=O)CN2C(=O)C1CCNCC1 [Example 242, (3aR,6aS)-4-Dimethylamino-N-{(1S)-3-methyl-1-[6-oxo-4-(piperidine-4-carbonyl)-hexahydro-pyrrolo[3,2-b]pyrrole-1-carbonyl]-butyl}-benzamide]
< 5	CC(C)C[C@H](NC(=O)c1ccc(N(C)C)cc1)C(=O)N1CC[C@@H]2[C@H]1C(=O)CN2C(=O)C1(N)CCC1 [Example 223, (3aR,6aS)-N-{(1S)-1-[4-(1-Amino-cyclobutanecarbonyl)-6-oxo-hexahydro-pyrrolo[3,2-b]pyrrole-1-carbonyl]-3-methyl-butyl}-4-dimethylamino-benzamide]
< 5	O=C(N[C@@H](Cc1ccc(F)cc1)C(=O)N1CC[C@@H]2[C@H]1C(=O)CN2C(=O)c1ccccc1)c1cccc(Br)c1 [Example 344, (3aR,6aS)-N-[(1S)-2-(4-Benzoyl-6-oxo-hexahydro-pyrrolo[3,2-b]pyrrol-1-yl)-1-(4-fluoro-benzyl)-2-oxo-ethyl]-3-bromo-benzamide]
< 5	CCn1nc(C)cc1C(=O)N[C@@H](Cc1ccc(O)cc1)C(=O)N1CC[C@@H]2[C@H]1C(=O)CN2C(=O)c1ccccc1S(C)(=O)=O [Example 313, (3aR,6aS)-2-Ethyl-5-methyl-2H-pyrazole-3-carboxylic acid {(1S)-1-(4-hydroxy-benzyl)-2-[4-(2-methanesulfonylbenzoyl)-6-oxo-hexahydropyrrolo[3,2-b]pyrrole-1-yl]-2-oxo-ethyl}-amide]
< 5	O=C(N[C@@H](Cc1ccc(O)cc1)C(=O)N1CC[C@@H]2[C@H]1C(=O)CN2C(=O)c1ccccc1)c1cccc2cccnc12 [Example 297, (3aR,6aS)-Quinoline-8-carboxylic acid [(1S)-2-(4-benzoyl-6-oxo-hexahydro-pyrrolo[3,2-b]pyrrole-1-yl)-1-(4-hydroxy-benzyl)-2-oxo-ethyl]-amide]
< 5	COc1cccc(C(=O)N[C@@H](Cc2ccc(O)cc2)C(=O)N2CC[C@@H]3[C@H]2C(=O)CN3C(=O)c2ccccc2)c1 [Example 338, (3aR,6aS)-N-[(1S)-2-(4-Benzoyl-6-oxo-hexahydro-pyrrolo[3,2-b]pyrrol-1-yl)-1-(4-hydroxy-benzyl)-2-oxo-ethyl]-3-methoxy-benzamide]
< 5	CC(C)C[C@H](NC(=O)c1ccc(N(C)C)cc1)C(=O)N1CC[C@@H]2[C@H]1C(=O)CN2C(=O)C1CCCO1 (stereo partly drawn) [Example 238, (3aR,6aS)-4-Dimethylamino-N-{(1S)-3-methyl-1-[6-oxo-4-(tetrahydro-furan-2-carbonyl)-hexahydro-pyrrolo[3,2-b]pyrrole-1-carbonyl]-butyl}-benzamide]
< 5	Cc1ccc(C(=O)N2CC(=O)[C@@H]3[C@H]2CCN3C(=O)[C@H](Cc2ccc(O)cc2)NC(=O)c2cccc(Br)c2)cc1 [Example 328, (3aR,6aS)-3-Bromo-N-{(1S)-1-(4-hydroxy-benzyl)-2-[4-(4-methyl-benzoyl)-6-oxo-hexahydro-pyrrolo[3,2-b]pyrrole-1-yl]-2-oxo-ethyl}-benzamide]

Target: T1, CPB2.8ΔCTE (Leishmania mexicana, UniProt P36400)
T1 construct: Wild-type recombinant CPB without the C-terminal extention (i.e. CPB2.8ΔCTE); Dr. Jeremy Mottram (Wellcome Centre for Molecular Parasitology, University of Glasgow)
T1 sequence (P36400 126-343, stated change not applied): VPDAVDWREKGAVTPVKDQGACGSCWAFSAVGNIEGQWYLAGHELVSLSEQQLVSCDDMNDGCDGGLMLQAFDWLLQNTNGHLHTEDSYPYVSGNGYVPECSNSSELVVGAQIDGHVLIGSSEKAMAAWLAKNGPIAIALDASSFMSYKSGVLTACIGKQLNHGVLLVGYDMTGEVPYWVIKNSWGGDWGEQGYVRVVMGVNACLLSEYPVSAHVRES
Assay: Leishmania mexicana cysteine protease B (CPB) peptidase activity assay (Ki)
Format: biochemical
Details: Ki, inhibitors of Leismania mexicana CPB protease
Method: as §1, §2
Wild-type recombinant CPB without the C-terminal extention (i.e. CPB2.8ΔCTE; Sanderson, S. J., et. al., Biochem. J., 347, 383-388, 2000) was obtained from Dr. Jeremy Mottram (Wellcome Centre for Molecular Parasitology, The Anderson College, University of Glasgow, Glasgow, U.K.). Activity assays were carried out in 100 mM sodium acetate; pH 5.5 containing 1 mM EDTA; 200 mM NaCl and 10 mM DTT (Alves, L. C., et. al., Mol. Biochem. Parasitol, 116, 1-9, 2001) using 0.25 nM enzyme. […] The rate of conversion of substrate to product was derived from the slope of the increase in fluorescence monitored continuously over time.
as §3

Compound	Ki [µM]
CC(=O)N(C)CC(=O)N1CC(=O)[C@@H]2[C@H]1CCN2C(=O)[C@H](CC(C)C)NC(=O)c1ccc(N(C)C)cc1 [Example 201, (3aR,6aS)-N-((1S)-1-{4-[2-(Acetyl-methyl-amino)-acetyl]-6-oxo-hexahydro-pyrrolo[3,2-b]pyrrole-1-carbonyl}-3-methyl-butyl)-4-dimethylamino-benzamide]	< 5
CCCCCC(=O)N1CC(=O)[C@@H]2[C@H]1CCN2C(=O)[C@H](CC(C)C)NC(=O)c1ccc(N(C)C)cc1 [Example 234, (3aR,6aS)-4-Dimethylamino-N-[(1S)-1-(4-hexanoyl-6-oxo-hexahydro-pyrrolo[3,2-b]pyrrole-1-carbonyl)-3-methyl-butyl]-benzamide]	< 5
CC(C)C[C@H](NC(=O)c1ccc(N(C)C)cc1)C(=O)N1CC[C@@H]2[C@H]1C(=O)CN2C(=O)c1ccc(C(C)(C)C)cc1 [Example 75, (3aR,6aS)-N-{(1S)-1-[4-(4-tert-Butyl-benzoyl)-6-oxo-hexahydro-pyrrolo[3,2-b]pyrrole-1-carbonyl]-3-methyl-butyl}-4-dimethylamino-benzamide]	< 5
CC(C)C[C@H](NC(=O)c1cccc(CN)c1)C(=O)N1CC[C@@H]2[C@H]1C(=O)CN2C(=O)[C@H](C)c1ccccc1 [Example 176, (3aR,6aS)-3-Aminomethyl-N-{(1S)-3-methyl-1-[6-oxo-4-((2R)-2-phenyl-propionyl)-hexahydro-pyrrolo[3,2-b]pyrrole-1-carbonyl]-butyl}-benzamide]	< 5
CC(C)C[C@H](NC(=O)c1ccc(C(C)(C)C)cc1)C(=O)N1CC[C@@H]2[C@H]1C(=O)CN2S(=O)(=O)c1ccccc1 [Example 119, (3aR,6aS)-N-[(1S)-1-(4-Benzenesulfonyl-6-oxo-hexahydro-pyrrolo[3,2-b]pyrrole-1-carbonyl)-3-methyl-butyl]-4-tert-butyl-benzamide]	< 5
